{"source": "paper PMC12586667", "about": "(Scientific Reports, 2025)", "key": {"[1]": {"system": "WT and genome-edited intestine-liver-on-a-chip (Caco-2 and HepG2 cells)", "assay": "Drug permeability assay", "format": "in vitro ADME, human", "conditions": "for drug concentration in the top channel / drug concentration in the bottom channel: WT and genome-edited chips"}, "[2]": {"assay": "Measurement of drug absorption", "format": "physicochemical", "conditions": "within 2 h"}, "CYP1A2": {"target": "T1, CYP1A2 (Homo sapiens, UniProt P05177)", "T1 sequence (P05177 1-516)": "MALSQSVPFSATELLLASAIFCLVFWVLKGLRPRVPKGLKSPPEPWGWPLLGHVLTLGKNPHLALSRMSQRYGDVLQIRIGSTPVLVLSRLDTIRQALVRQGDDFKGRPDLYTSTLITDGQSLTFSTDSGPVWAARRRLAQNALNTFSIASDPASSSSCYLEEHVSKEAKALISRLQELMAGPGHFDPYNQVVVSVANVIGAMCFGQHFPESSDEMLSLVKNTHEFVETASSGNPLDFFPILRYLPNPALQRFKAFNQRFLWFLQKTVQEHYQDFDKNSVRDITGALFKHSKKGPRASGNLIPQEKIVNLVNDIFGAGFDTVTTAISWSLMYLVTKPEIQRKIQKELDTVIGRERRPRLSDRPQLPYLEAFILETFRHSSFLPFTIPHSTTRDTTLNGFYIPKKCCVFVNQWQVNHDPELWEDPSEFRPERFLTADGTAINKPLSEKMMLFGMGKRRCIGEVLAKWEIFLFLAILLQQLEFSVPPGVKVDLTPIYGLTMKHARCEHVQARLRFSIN", "assay": "CYP1A2 activity on chip by quantifying ISOPRO", "format": "in vitro ADME"}, "CYP2D6": {"target": "CYP2D6 (Homo sapiens, UniProt P10635)", "sequence (P10635 whole entry)": "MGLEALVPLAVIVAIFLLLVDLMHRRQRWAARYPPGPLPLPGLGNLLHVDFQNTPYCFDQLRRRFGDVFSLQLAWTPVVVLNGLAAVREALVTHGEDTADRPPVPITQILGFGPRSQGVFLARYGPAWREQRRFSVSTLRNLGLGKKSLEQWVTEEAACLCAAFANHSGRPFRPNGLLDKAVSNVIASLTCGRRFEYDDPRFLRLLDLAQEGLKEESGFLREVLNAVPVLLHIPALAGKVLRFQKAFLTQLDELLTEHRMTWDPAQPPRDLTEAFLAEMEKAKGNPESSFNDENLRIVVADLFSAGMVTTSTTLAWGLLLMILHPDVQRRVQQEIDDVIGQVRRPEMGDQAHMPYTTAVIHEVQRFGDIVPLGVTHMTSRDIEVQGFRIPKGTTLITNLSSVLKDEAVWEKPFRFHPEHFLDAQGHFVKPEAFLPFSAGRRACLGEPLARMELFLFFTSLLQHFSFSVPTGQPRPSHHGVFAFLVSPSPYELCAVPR", "assay": "CYP2D6 activity on chip by quantifying 1-OH bufuralol", "format": "in vitro ADME"}, "[3]": {"conditions": "model drugs with minimal first-pass effects; cited from earlier work"}, "CYP3A4": {"target": "CYP3A4 (Homo sapiens, UniProt P08684)", "sequence (P08684 whole entry)": "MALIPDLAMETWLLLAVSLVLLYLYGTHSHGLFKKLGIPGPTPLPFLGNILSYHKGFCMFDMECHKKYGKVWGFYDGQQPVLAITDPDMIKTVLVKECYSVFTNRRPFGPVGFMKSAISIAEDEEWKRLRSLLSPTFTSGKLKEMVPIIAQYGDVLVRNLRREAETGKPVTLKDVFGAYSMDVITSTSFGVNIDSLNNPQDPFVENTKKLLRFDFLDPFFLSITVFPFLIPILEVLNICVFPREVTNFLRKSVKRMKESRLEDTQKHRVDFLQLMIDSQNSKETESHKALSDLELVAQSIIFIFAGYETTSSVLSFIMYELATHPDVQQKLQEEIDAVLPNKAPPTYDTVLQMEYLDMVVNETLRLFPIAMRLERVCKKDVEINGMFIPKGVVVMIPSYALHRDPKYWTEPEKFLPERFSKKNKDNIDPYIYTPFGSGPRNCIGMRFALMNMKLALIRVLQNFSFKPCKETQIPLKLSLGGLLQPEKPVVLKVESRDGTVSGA", "assay": "CYP3A4 activity on chip by quantifying α-OH triazolam", "format": "in vitro ADME", "conditions": "flow conditions"}, "[4]": {"conditions": "coadministration; cited from earlier work"}, "[5]": {"assay": "Stability of metabolite in medium containing 10% FBS", "format": "in vitro ADME", "conditions": "could not be measured"}, "[6]": {"system": "intestine-liver-on-a-chip (Caco-2 and HepG2 cells)", "assay": "Lucifer yellow permeability assay", "format": "in vitro ADME, human", "conditions": "WT and genome-edited chips vs WT or genome-edited Caco-2 mono-culture"}, "CYP2C9": {"target": "CYP2C9 (Homo sapiens, UniProt P11712)", "sequence (P11712 whole entry)": "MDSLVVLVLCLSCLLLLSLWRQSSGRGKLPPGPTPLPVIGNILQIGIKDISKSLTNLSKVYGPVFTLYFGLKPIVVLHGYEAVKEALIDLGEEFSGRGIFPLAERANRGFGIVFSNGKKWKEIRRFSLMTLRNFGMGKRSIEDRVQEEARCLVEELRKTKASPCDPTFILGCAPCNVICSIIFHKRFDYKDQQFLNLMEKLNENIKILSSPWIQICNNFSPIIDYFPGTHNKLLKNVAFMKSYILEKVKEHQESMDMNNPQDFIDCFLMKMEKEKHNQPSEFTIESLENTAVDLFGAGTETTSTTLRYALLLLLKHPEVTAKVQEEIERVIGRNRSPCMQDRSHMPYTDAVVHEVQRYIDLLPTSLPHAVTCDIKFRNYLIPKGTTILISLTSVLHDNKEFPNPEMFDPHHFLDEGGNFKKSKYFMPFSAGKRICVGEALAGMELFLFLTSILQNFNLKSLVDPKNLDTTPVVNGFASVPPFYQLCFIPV", "assay": "CYP2C9 activity on chip by quantifying 4-OH diclofenac", "format": "in vitro ADME"}, "[7]": {"conditions": "both static and flow conditions"}}}
{"compound": "O=C(O)Cc1ccccc1Nc1c(Cl)cccc1Cl", "note": "[diclofenac]", "values": [{"measurement": "drug concentration in the top channel", "setting": "[1]; [7]", "value": "slightly reduced compared to the initial concentration of 10 μM"}]}
{"compound": "Cc1nnc2n1-c1ccc(Cl)cc1C(c1ccccc1Cl)=NC2", "note": "[triazolam]", "values": [{"measurement": "adsorption onto the PDMS device", "setting": "[2]", "value": "substantially adsorbed"}, {"measurement": "drug concentration in the top channel", "setting": "[1]; [7]", "value": "rapid decrease in concentration"}, {"measurement": "drug concentration, genome-edited chips vs WT chips", "setting": "[1]; flow conditions, 24 and 48 h", "value": "lower than those in WT chips"}, {"measurement": "drug concentration in the bottom channel", "setting": "[1]; flow conditions", "value": "increased substantially"}]}
{"compound": "NCC(O)COc1cccc2ccccc12", "note": "(centres unmarked) [ISOPRO, desisopropylpropranolol]", "values": [{"measurement": "metabolite concentration in the bottom channel", "setting": "CYP1A2; flow conditions vs static", "value": "increased under flow conditions"}, {"measurement": "metabolite concentration in the top channel", "setting": "CYP1A2; flow conditions vs static", "value": "no change was observed"}, {"measurement": "metabolite concentration, genome-edited chip vs WT chip", "setting": "CYP1A2; flow, top and bottom channels, 1 μM propranolol", "value": "higher in the genome-edited chip under flow conditions compared to the WT chip"}, {"measurement": "time of peak concentration in the bottom channel", "setting": "CYP1A2; genome-edited chip, flow conditions", "value": 24, "unit": "h"}]}
{"compound": "1’-hydroxy bufuralol [1-OH bufuralol]", "values": [{"measurement": "metabolite concentration, genome-edited chip vs WT chip", "setting": "CYP2D6; flow, top and bottom channels, 24 and 48 h", "value": "higher in the genome-edited chip compared to the WT chip"}, {"measurement": "metabolite concentration, flow vs static conditions", "setting": "CYP2D6; genome-edited chip", "value": "higher than that observed in the static conditions"}]}
{"compound": "Cn1c(=O)c2c(ncn2C)n(C)c1=O", "note": "[caffeine]", "values": [{"measurement": "oral bioavailability (F)", "setting": "[3]", "value": "> 0.7"}]}
{"compound": "OCc1nnc2n1-c1ccc(Cl)cc1C(c1ccccc1Cl)=NC2", "note": "[α-OH triazolam, α-hydroxy triazolam]", "values": [{"measurement": "metabolite concentration, genome-edited chip vs WT chip", "setting": "CYP3A4", "value": "higher than that observed in the WT chip"}]}
{"compound": "CCC(C)n1ncn(-c2ccc(N3CCN(c4ccc(OCC5COC(Cn6cncn6)(c6ccc(Cl)cc6Cl)O5)cc4)CC3)cc2)c1=O", "note": "(centres unmarked) [itraconazole]", "values": [{"measurement": "effect on the area under the curve (AUC) of triazolam", "setting": "[4]", "value": "increase the area under the curve (AUC) of triazolam"}]}
{"compound": "CCc1cccc2cc(C(O)CNC(C)(C)C)oc12", "note": "(centres unmarked) [bufuralol]", "values": [{"measurement": "adsorption onto the PDMS device", "setting": "[2]", "value": "substantially adsorbed"}, {"measurement": "drug concentration, genome-edited chips vs WT chips", "setting": "[1]; after 48 h", "value": "slightly lower in the genome-edited chips than in the WT chips"}, {"measurement": "drug concentration in the top channel", "setting": "[1]; [7]", "value": "rapid decrease in concentration"}, {"measurement": "drug concentration in the bottom channel", "setting": "[1]; flow conditions", "value": "increased substantially compared to static conditions"}]}
{"compound": "CC(C)NCC(O)COc1ccc(O)c2ccccc12", "note": "(centres unmarked) [4-OH propranolol, 4-hydroxy propranolol]", "values": [{"measurement": "stability", "setting": "[5]", "value": "extremely unstable"}]}
{"compound": "CC(C)NCC(O)COc1cccc2ccccc12", "note": "(centres unmarked) [propranolol]", "values": [{"measurement": "adsorption onto the PDMS device", "setting": "[2]", "value": "substantially adsorbed"}, {"measurement": "drug concentration in the top channel", "setting": "[1]; [7]", "value": "rapidly decreased"}, {"measurement": "drug concentration, genome-edited chips vs WT chips", "setting": "[1]; flow conditions, 24 and 48 h", "value": "significantly lower than those in the WT chips"}, {"measurement": "drug concentration in the bottom channel", "setting": "[1]; flow conditions", "value": "increased substantially"}]}
{"compound": "Lucifer Yellow CH [LY]", "values": [{"measurement": "Papp of LY in chips compared to Caco-2 cells mono-culture", "setting": "[6]", "value": "lower in both the WT and genome-edited chips"}]}
{"compound": "O=C(O)Cc1ccccc1Nc1c(Cl)cc(O)cc1Cl", "note": "[4-OH diclofenac, 4’-hydroxy diclofenac]", "values": [{"measurement": "metabolite concentration, genome-edited chip vs WT chip", "setting": "CYP2C9; flow, top and bottom channel, 24 and 48 h", "value": "higher in the genome-edited chip Flow compared to the WT chip Flow"}, {"measurement": "metabolite concentration, static vs flow conditions", "setting": "CYP2C9; top channel of genome-edited chip", "value": "higher than that under flow conditions"}]}
{"compound": "CC(=O)Nc1ccc(O)cc1", "note": "[APAP, acetaminophen]", "values": [{"measurement": "oral bioavailability (F)", "setting": "[3]", "value": "> 0.7"}, {"measurement": "drug concentration in the top channel, genome-edited chip vs WT chip", "setting": "[1]; flow conditions, 24 and 48 h", "value": "slightly higher than those in the WT chip"}, {"measurement": "drug concentration in the top channel", "setting": "[1]; flow conditions, 24 and 48 h, 10 μM", "value": "decreased compared to the initial concentration of 10 μM"}, {"measurement": "drug concentration in the bottom channel", "setting": "[1]; flow conditions", "value": "increased substantially"}, {"measurement": "drug concentration in the bottom channel", "setting": "[1]; static conditions, 10 μM", "value": "increased in a time-dependent manner"}, {"measurement": "drug concentration in the top channel", "setting": "[1]; static conditions, 10 μM", "value": "remained constant"}]}
